Measured values: patent US20230333087A1, “METHODS FOR MONITORING PATIENT RESPONSE TO TREATMENT OF RETINAL OXIDATIVE DISEASES” (BioJiva LLC, priority 2022, published 2023)

Legend:
[1] = system: 4-HNE and 4-HHE formation; conditions: present in lipid bilayers; cited from earlier work
[2] = clinical trials; cited from earlier work
LPO and cell death = conditions: FRDA, INAD, PSP; cited from earlier work
[3] = system: human RPE cell line ARPE-19; conditions: high-intensity light exposure; cited from earlier work
[4] = system: iron-induced retinal autofluorescence and degeneration; assay: Iron-induced retinal autofluorescence and degeneration, cSLO and OCT imaging 1 week after intravitreal iron; assay type: in vivo, C57BL/6J mice; conditions: DHA diet versus previous study with regular chow without DHA (LabDiet 5001)
Experimental: To evaluate the protective effect of 0.25% D-DHA diet, confocal scanning laser ophthalmoscopy (cSLO) and optical coherence tomography (OCT) were employed for in vivo imaging at 1 week after injections. For the cSLO imaging, both blue autofluorescence (BAF) and near-infra autofluorescence (IRAF) were performed.
Adult male wild-type C57BL/6J mice (Stock No.000664, Jackson Labs, Bar Harbor, ME, USA) were housed in standard conditions under cyclic light (12 h:12 h light-dark cycle). Mice had ad libitum access to water and food. Beginning at 2 mo of age, mice were placed on the AIN93G diet described above, supplemented with 0.25% D-DHA or DHA (control diet) for 1 week, 2 weeks, 3 weeks, or 4 weeks prior to the intravitreal injection. Mice were given an intravitreal injection of 1 µl 0.5 mM ferric ammonium citrate diluted in 0.9% NaCl (saline) (MP Biomedicals LLC, Santa Ana, CA) or
1 µl of saline as control. Intravitreal injections were performed as previously described ^54. Mice were continued on respective diet until their final evaluation. All housing and procedures were performed according to the NIH Guide for the Care and Use of Experimental Animals and approved by the University of Pennsylvania Animal Care and Use Committee.
Mice were given general anesthesia and placed on a platform. Pupils were dilated with 1% tropicamide saline solution (Akorn, Inc., Lake Forest, IL). Optical coherence tomography (OCT) imaging was performed for visualization of the retinal structure by using a Bioptigen
Envisu (R2200, Bioptigen Inc., Durham, NC, USA) coupled to a broadband LED light source (T870-HP, Superlum Diodes, Ltd, Ireland). Confocal scanning laser ophthalmoscopy (cSLO) (Spectralis HRA, Heidelberg Engineering, Franklin, MA, USA) was used for visualization of retinal AF using BluePeak™ or simply blue AF (488 nm excitation) and near-infrared AF (787 nm excitation) imaging modes.

In the case of `[2H]C([2H])(/C=C\CCCCC)/C=C\CCCCCCCC(=O)O` [D2-linoleic acid], the “4-HNE and 4-HHE formation” value [1] is listed as “downregulated not just 4-HNE but also 4-HHE formation”.

For `[2H]C([2H])(/C=C\CCCCC)/C=C\CCCCCCCC(=O)OCC` [RT001, 11,11-D2-Lin], the safety and tolerability [2] is given as “notable safety and tolerability” and the “LPO and cell death” value (LPO and cell death) is given as “inhibited LPO and rescued cell death”.

For “docosahexaenoic acid [DHA, reference compound]”, the “oxidative stress and LPO” value [3] is listed as “increased oxidative stress and LPO” and the “severity of IVT iron induced damage” value [4] is listed as “less severe”.
